According to patent publication US6054435A, “6-O-substituted macrolides having antibacterial activity” (priority 1999, dated 2000):
Values after ≈ are worked out from the molar mass of the structure shown.

Key:
Test in all cases: in vitro antibacterial activity (MIC), agar dilution
Assay type in all cases: cell-based
[1] = tested on: Staphylococcus aureus A5177; settings: organism code BB; BHI agar, 35-37° C., 20 to 24 hours; unit assumed
How it was run: (§1)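 Test compound serially diluted in Brain Heart Infusion agar across twelve plates; inocula of 1:100 dilution (1:10 for slow growers such as Streptococcus) applied by Steers replicator. MIC taken visually as lowest concentration giving no growth, slight haze or sparse isolated colonies versus drug-free growth control.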

Escherichia coli DC-2 = settings: organism code SS; BHI agar, 35-37° C., 20 to 24 hours; unit assumed
How it was run: as §1

[2] = tested on: Streptococcus Pneumonia 5979; settings: organism code ZZ; BHI agar, 35-37° C., 20 to 24 hours; unit assumed
How it was run: as §1

[3] = tested on: Staphylococcus aureus CMX 642A; settings: organism code DD; BHI agar, 35-37° C., 20 to 24 hours; unit assumed
How it was run: as §1

[4] = tested on: Enterococcus faecium ATCC 8043; settings: organism code II; BHI agar, 35-37° C., 20 to 24 hours; unit assumed
How it was run: as §1

[5] = tested on: Micrococcus luteus ATCC 4698; settings: organism code PP; BHI agar, 35-37° C., 20 to 24 hours; unit assumed
How it was run: (§2)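 Plates of BHI agar were prepared with twelve aqueous dilutions of compound, then inoculated at 1:100 dilution, or 1:10 for slow growers like Streptococcus. After incubation they were inspected, and the lowest concentration yielding no growth, slight haze or sparse colonies was recorded as MIC.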

[6] = tested on: Streptococcus pyogenes EES61; settings: organism code LL; BHI agar, 35-37° C., 20 to 24 hours; unit assumed
How it was run: as §1

[7] = tested on: Streptococcus pyogenes PIU 2548; settings: organism code NN; BHI agar, 35-37° C., 20 to 24 hours; unit assumed
How it was run: as §1

Candida albicans CCH 442 = settings: organism code TT; BHI agar, 35-37° C., 20 to 24 hours; unit assumed
How it was run: as §1

[8] = tested on: Staphylococcus aureus CMX 553; settings: organism code FF; BHI agar, 35-37° C., 20 to 24 hours; unit assumed
How it was run: as §1

[9] = tested on: Mycobacterium smegmatis ATCC 114; settings: organism code UU; BHI agar, 35-37° C., 20 to 24 hours; unit assumed
How it was run: as §1

[10] = tested on: Staphylococcus aureus A-5278; settings: organism code CC; BHI agar, 35-37° C., 20 to 24 hours; unit assumed
How it was run: as §1

[11] = tested on: Haemophilis Influenzae DILL AMP R; settings: organism code WW; BHI agar, 35-37° C., 20 to 24 hours; unit assumed
How it was run: as §1

[12] = tested on: Staphylococcus aureus ATCC 6538P; settings: organism code AA; BHI agar, 35-37° C., 20 to 24 hours; unit assumed
How it was run: as §1

[13] = tested on: Staphylococcus aureus 1775; settings: organism code GG; BHI agar, 35-37° C., 20 to 24 hours; unit assumed
How it was run: as §1

[14] = tested on: Staphylococcus epidermidis 3519; settings: organism code HH; BHI agar, 35-37° C., 20 to 24 hours; unit assumed
How it was run: as §1

[15] = tested on: Streptococcus Pneumonia GYR 1171; settings: organism code YY; BHI agar, 35-37° C., 20 to 24 hours; unit assumed
How it was run: as §1

[16] = tested on: Nocardia Asteroides ATCC9970; settings: organism code VV; BHI agar, 35-37° C., 20 to 24 hours; unit assumed
How it was run: as §1

Escherichia coli SS = settings: organism code RR; BHI agar, 35-37° C., 20 to 24 hours; unit assumed
How it was run: as §1

[17] = tested on: Streptococcus Pneumonia ATCC6303; settings: organism code XX; BHI agar, 35-37° C., 20 to 24 hours; unit assumed
How it was run: as §1

[18] = tested on: Streptococcus Pneumonia 5649; settings: organism code ZZA; BHI agar, 35-37° C., 20 to 24 hours; unit assumed
How it was run: as §1

[19] = tested on: Micrococcus luteus ATCC 9341; settings: organism code OO; BHI agar, 35-37° C., 20 to 24 hours; unit assumed
How it was run: as §2

[20] = tested on: Streptococcus bovis A-5169; settings: organism code JJ; BHI agar, 35-37° C., 20 to 24 hours; unit assumed
How it was run: as §1

[21] = tested on: Streptococcus agalactiae CMX 508; settings: organism code KK; BHI agar, 35-37° C., 20 to 24 hours; unit assumed
How it was run: as §1

Escherichia coli JUHL = settings: organism code QQ; BHI agar, 35-37° C., 20 to 24 hours; unit assumed
How it was run: as §1

[22] = tested on: Streptococcus pyogenes 930; settings: organism code MM; BHI agar, 35-37° C., 20 to 24 hours; unit assumed
How it was run: as §1

[23] = tested on: Staphylococcus aureus NCTC10649M; settings: organism code EE; BHI agar, 35-37° C., 20 to 24 hours; unit assumed
How it was run: as §1

Row | SMILES | MIC [1] [µg/mL] | MIC (Escherichia coli DC-2) [µg/mL] | MIC [2] [µg/mL] | MIC [3] [µg/mL] | MIC [4] [µg/mL] | MIC [5] [µg/mL] | MIC [6] [µg/mL] | MIC [7] [µg/mL] | MIC (Candida albicans CCH 442) [µg/mL] | MIC [8] [µg/mL] | MIC [9] [µg/mL] | MIC [10] [µg/mL] | MIC [11] [µg/mL] | MIC [12] [µg/mL] | MIC [13] [µg/mL] | MIC [14] [µg/mL] | MIC [15] [µg/mL] | MIC [16] [µg/mL] | MIC (Escherichia coli SS) [µg/mL] | MIC [17] [µg/mL] | also measured
1 | CC[C@H]1OC(=O)[C@H](C)C(=O)[C@H](C)[C@@H](O[C@@H]2O[C@H](C)C[C@H](N(C)C)[C@H]2O)[C@](C)(OC/C=C/c2ccc(-c3cccs3)s2)C[C@@H](C)C(=O)[C@H](C)[C@H]2NC(=O)O[C@@]21C [Example 74] | 0.1 (≈ 0.125 µM) | > 100 | 2 (≈ 2.49 µM) | 0.1 (≈ 0.125 µM) | 0.02 (≈ 0.0249 µM) | 0.1 (≈ 0.125 µM) | 0.01 (≈ 0.0125 µM) | 0.1 (≈ 0.125 µM) | > 100 | 0.1 (≈ 0.125 µM) | 0.39 (≈ 0.486 µM) | 50 (≈ 62.3 µM) | 4 (≈ 4.98 µM) | 0.1 (≈ 0.125 µM) | 25 (≈ 31.1 µM) | 0.1 (≈ 0.125 µM) | ≤ 0.004 | 0.1 (≈ 0.125 µM) | 0.39 (≈ 0.486 µM) | ≤ 0.004 | MIC [18]: 0.25 µg/mL (≈ 0.311 µM); MIC [19]: 0.02 µg/mL (≈ 0.0249 µM); MIC [20]: 0.02 µg/mL (≈ 0.0249 µM); MIC [21]: ≤ 0.005 µg/mL; MIC (Escherichia coli JUHL): 100 µg/mL (≈ 125 µM); MIC [22]: > 100 µg/mL; MIC [23]: 0.2 µg/mL (≈ 0.249 µM)
2 | CC[C@H]1OC(=O)[C@H](C)C(=O)[C@H](C)[C@@H](O[C@@H]2O[C@H](C)C[C@H](N(C)C)[C@H]2O)[C@](C)(OCC#Cc2ccc(-c3cc4ccccc4s3)s2)C[C@@H](C)C(=O)[C@H](C)[C@H]2NC(=O)O[C@@]21C [Example 34] | 0.2 (≈ 0.235 µM) | > 100 | 8 (≈ 9.4 µM) | 0.39 (≈ 0.458 µM) | 0.2 (≈ 0.235 µM) | 0.2 (≈ 0.235 µM) | 0.02 (≈ 0.0235 µM) | 0.39 (≈ 0.458 µM) | > 100 | 0.2 (≈ 0.235 µM) | 0.39 (≈ 0.458 µM) | 50 (≈ 58.7 µM) | 16 (≈ 18.8 µM) | 0.39 (≈ 0.458 µM) | 12.5 (≈ 14.7 µM) | 0.39 (≈ 0.458 µM) | 0.25 (≈ 0.294 µM) | 0.39 (≈ 0.458 µM) | 1.56 (≈ 1.83 µM) | 0.25 (≈ 0.294 µM) | MIC [18]: 2 µg/mL (≈ 2.35 µM); MIC [19]: 0.02 µg/mL (≈ 0.0235 µM); MIC [20]: 0.02 µg/mL (≈ 0.0235 µM); MIC [21]: 0.02 µg/mL (≈ 0.0235 µM); MIC (Escherichia coli JUHL): > 100 µg/mL; MIC [22]: 1.56 µg/mL (≈ 1.83 µM); MIC [23]: 0.2 µg/mL (≈ 0.235 µM)
3 | CC[C@H]1OC(=O)[C@H](C)C(=O)[C@H](C)[C@@H](O[C@@H]2O[C@H](C)C[C@H](N(C)C)[C@H]2O)[C@](C)(OC/C=C/c2ccc(-c3ccccn3)s2)C[C@@H](C)C(=O)[C@H](C)[C@H]2NC(=O)O[C@@]21C [Example 75] | 0.05 (≈ 0.0627 µM) | 25 (≈ 31.3 µM) | 1 (≈ 1.25 µM) | 0.05 (≈ 0.0627 µM) | 0.05 (≈ 0.0627 µM) | 0.1 (≈ 0.125 µM) | 0.02 (≈ 0.0251 µM) | 0.1 (≈ 0.125 µM) | > 100 | 0.05 (≈ 0.0627 µM) | 1.56 (≈ 1.95 µM) | > 100 | 2 (≈ 2.51 µM) | 0.05 (≈ 0.0627 µM) | > 100 | 0.05 (≈ 0.0627 µM) | ≤ 0.004 | 0.02 (≈ 0.0251 µM) | 0.39 (≈ 0.489 µM) | ≤ 0.004 | MIC [18]: 0.125 µg/mL (≈ 0.157 µM); MIC [19]: 0.02 µg/mL (≈ 0.0251 µM); MIC [20]: 0.01 µg/mL (≈ 0.0125 µM); MIC [21]: 0.02 µg/mL (≈ 0.0251 µM); MIC (Escherichia coli JUHL): 50 µg/mL (≈ 62.7 µM); MIC [22]: 12.5 µg/mL (≈ 15.7 µM); MIC [23]: 0.05 µg/mL (≈ 0.0627 µM)
4 | CC[C@H]1OC(=O)[C@H](C)C(=O)[C@H](C)[C@@H](O[C@@H]2O[C@H](C)C[C@H](N(C)C)[C@H]2O)[C@](C)(OCC#Cc2ccc(-c3cncc(C#N)c3)s2)C[C@@H](C)C(=O)[C@H](C)[C@H]2NC(=O)O[C@@]21C [Example 8] | 0.05 (≈ 0.0609 µM) | > 100 | 0.25 (≈ 0.305 µM) | 0.05 (≈ 0.0609 µM) | 0.02 (≈ 0.0244 µM) | 0.05 (≈ 0.0609 µM) | ≤ 0.005 | 0.1 (≈ 0.122 µM) | > 100 | 0.02 (≈ 0.0244 µM) | 0.78 (≈ 0.95 µM) | > 100 | 4 (≈ 4.87 µM) | 0.05 (≈ 0.0609 µM) | > 100 | 0.05 (≈ 0.0609 µM) | ≤ 0.004 | 0.01 (≈ 0.0122 µM) | 0.2 (≈ 0.244 µM) | ≤ 0.004 | MIC [18]: ≤ 0.004 µg/mL; MIC [19]: ≤ 0.005 µg/mL; MIC [20]: ≤ 0.005 µg/mL; MIC [21]: 0.01 µg/mL (≈ 0.0122 µM); MIC (Escherichia coli JUHL): 50 µg/mL (≈ 60.9 µM); MIC [22]: 0.2 µg/mL (≈ 0.244 µM); MIC [23]: 0.02 µg/mL (≈ 0.0244 µM)
